Test results taken from PMC6309937 (Pain, 2019).

Legend:
Format in all cases: cell-based
hCav3.2 = hCav3.2 (Homo sapiens, UniProt O95180); assay: whole-cell patch clamp, % inhibition of current; conditions: read-out: 20μM
hCav3.3 = hCav3.3 (Homo sapiens, UniProt Q9P0X4); assay: whole-cell patch clamp, % inhibition of current; conditions: read-out: 20μM
rCav2.2 = rCav2.2 (Rattus norvegicus, UniProt Q02294); assay: whole-cell patch clamp, % inhibition of current at […]; conditions: read-out: % inhibition at 20 μM

hCav3.2, sequence (O95180 whole entry): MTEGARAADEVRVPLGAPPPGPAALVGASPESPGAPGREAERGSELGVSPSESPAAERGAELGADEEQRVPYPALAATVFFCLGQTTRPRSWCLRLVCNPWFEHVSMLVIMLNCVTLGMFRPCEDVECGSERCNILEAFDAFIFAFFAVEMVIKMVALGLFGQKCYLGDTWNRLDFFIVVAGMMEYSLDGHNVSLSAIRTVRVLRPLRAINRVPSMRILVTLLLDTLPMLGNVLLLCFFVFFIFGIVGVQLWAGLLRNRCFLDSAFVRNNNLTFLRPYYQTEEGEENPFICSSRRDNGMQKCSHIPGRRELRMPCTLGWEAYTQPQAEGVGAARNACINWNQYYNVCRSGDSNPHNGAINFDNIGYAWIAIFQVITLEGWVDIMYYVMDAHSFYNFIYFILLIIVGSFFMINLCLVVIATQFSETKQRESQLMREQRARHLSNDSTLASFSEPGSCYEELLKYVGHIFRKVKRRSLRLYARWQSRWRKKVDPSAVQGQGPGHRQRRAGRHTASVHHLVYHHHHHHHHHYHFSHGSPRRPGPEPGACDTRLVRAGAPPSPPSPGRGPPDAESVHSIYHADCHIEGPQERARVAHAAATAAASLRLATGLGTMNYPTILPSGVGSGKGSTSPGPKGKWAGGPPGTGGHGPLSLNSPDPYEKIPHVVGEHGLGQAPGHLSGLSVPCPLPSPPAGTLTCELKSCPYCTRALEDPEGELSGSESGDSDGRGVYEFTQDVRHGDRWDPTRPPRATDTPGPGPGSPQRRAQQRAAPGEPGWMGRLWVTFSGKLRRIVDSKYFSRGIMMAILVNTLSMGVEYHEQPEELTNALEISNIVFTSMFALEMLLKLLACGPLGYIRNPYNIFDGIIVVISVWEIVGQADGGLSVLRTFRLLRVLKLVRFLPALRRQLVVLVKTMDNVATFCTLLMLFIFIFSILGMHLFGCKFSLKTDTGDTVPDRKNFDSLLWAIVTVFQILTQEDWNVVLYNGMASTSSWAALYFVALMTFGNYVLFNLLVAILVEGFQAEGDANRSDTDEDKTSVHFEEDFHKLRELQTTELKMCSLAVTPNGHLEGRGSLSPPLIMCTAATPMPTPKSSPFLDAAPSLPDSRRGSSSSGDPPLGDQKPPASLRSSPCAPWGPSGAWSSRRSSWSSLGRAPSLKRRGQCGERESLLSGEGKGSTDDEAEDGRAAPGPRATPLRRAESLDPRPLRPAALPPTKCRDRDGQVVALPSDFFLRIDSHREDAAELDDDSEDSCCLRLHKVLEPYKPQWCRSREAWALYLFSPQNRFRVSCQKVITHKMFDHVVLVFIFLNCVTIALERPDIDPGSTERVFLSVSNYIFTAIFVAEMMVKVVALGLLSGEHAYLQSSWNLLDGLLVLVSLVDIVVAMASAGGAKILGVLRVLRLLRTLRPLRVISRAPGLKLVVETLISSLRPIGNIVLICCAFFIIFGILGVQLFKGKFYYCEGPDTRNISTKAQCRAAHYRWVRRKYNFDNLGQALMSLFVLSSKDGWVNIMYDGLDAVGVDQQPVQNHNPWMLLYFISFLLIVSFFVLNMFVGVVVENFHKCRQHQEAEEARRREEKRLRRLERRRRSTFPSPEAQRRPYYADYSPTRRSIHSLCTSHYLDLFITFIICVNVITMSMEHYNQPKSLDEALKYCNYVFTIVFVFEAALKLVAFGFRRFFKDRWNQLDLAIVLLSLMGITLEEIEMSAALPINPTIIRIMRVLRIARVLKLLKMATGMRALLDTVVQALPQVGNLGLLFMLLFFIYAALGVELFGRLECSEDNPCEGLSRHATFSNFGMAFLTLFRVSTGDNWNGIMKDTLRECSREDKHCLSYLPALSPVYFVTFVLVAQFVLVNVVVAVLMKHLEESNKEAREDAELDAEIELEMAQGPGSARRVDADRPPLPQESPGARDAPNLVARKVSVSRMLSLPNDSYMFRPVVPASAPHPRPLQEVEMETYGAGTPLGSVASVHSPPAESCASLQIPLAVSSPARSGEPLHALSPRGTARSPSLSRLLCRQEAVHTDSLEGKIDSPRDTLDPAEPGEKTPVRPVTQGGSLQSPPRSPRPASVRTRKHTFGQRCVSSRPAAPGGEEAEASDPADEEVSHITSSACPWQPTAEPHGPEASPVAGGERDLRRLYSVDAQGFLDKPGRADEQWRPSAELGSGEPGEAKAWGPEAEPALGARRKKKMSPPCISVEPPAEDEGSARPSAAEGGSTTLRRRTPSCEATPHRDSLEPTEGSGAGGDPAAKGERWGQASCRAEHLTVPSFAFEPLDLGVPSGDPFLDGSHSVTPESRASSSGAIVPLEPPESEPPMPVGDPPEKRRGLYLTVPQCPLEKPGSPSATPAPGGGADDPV
hCav3.3, sequence (Q9P0X4 whole entry): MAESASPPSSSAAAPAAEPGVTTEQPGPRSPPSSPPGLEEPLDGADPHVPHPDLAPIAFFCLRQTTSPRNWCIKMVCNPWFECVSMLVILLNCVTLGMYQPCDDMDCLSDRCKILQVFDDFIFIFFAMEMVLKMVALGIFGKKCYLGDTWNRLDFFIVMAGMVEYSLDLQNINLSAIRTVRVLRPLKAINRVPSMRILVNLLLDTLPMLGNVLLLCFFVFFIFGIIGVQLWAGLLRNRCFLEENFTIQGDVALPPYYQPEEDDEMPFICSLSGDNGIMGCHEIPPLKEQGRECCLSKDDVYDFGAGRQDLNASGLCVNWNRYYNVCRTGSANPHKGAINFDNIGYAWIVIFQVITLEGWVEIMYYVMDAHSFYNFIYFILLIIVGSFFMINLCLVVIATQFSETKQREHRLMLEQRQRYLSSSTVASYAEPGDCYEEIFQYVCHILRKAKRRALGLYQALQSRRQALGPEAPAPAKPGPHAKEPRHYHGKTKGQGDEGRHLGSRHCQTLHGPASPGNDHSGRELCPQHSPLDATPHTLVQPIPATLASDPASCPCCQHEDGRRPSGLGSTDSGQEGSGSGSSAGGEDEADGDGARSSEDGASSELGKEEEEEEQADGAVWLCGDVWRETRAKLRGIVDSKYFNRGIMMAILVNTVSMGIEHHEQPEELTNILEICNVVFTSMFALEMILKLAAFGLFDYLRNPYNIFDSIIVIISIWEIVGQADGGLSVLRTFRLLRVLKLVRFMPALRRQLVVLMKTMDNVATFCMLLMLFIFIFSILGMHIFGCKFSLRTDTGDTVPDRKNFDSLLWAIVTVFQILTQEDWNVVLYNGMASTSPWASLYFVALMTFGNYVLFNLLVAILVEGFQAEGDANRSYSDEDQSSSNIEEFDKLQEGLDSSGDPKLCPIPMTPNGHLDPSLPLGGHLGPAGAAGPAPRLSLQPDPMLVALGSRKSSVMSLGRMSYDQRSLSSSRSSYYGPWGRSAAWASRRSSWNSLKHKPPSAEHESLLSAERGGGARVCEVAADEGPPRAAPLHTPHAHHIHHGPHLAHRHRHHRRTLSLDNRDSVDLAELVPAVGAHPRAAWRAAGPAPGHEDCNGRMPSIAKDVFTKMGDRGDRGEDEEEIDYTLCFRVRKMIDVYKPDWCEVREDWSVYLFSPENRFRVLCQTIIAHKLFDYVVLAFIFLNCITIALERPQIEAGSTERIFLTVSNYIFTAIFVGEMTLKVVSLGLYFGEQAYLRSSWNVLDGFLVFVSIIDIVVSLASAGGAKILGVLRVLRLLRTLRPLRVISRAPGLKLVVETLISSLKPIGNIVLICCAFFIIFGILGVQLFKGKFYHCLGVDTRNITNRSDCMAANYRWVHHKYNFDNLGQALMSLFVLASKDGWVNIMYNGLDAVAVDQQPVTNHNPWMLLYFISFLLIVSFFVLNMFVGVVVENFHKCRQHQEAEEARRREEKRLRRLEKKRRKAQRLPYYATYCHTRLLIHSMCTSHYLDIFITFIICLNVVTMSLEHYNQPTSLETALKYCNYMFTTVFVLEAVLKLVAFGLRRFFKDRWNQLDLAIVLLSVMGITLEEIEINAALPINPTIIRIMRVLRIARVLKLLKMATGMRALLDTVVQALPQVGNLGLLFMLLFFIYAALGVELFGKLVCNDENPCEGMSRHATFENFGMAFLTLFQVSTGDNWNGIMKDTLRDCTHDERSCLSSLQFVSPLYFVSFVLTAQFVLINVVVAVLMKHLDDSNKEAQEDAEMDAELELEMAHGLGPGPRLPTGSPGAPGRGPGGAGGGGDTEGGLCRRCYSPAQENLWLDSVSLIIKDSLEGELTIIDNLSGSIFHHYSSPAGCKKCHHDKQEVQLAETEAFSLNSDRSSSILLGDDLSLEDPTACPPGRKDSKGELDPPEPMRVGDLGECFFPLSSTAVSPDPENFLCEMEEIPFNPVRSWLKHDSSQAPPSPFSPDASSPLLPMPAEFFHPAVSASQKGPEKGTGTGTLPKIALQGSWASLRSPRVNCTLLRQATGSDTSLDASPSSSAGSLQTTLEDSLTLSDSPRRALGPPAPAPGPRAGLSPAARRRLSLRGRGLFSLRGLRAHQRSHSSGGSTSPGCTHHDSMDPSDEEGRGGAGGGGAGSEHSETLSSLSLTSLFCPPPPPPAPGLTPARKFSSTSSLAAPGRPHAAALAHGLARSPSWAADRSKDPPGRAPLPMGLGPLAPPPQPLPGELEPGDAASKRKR

## C=C(C)[C@@H]1CC[C@]2(C(=O)O)CC[C@]3(C)[C@H](CC[C@@H]4[C@@]5(C)CC[C@H](O)C(C)(C)[C@@H]5CC[C@]43C)[C@@H]12 [BA, betulinic acid]
hCav3.2
  inhibition at 20 µM: 66.1 ± 4.6%
hCav3.3
  inhibition at 20 µM: 31.4 ± 1.8%
rCav2.2
  inhibition at 20 µM: 69.8 ± 2.5%
